According to US20230139171A1 (SITA Information Networking Computing UK Limited, priority 2019, published 2023):

Key:
Format in all cases: cell-based
[1] = molecular target: T1, human TLR8 (Homo sapiens, UniProt Q9NR97); assay: TLR8 inhibition reporter assay (HEK-Blue cells, SEAP reporter, R848 stimulation); details: HEK-Blue cells overexpressing human TLR8, SEAP reporter, R848 15.9 μM; read-out: TLR8 IC50
T1 construct: host or cells: HEK-Blue cells
T1 sequence (Q9NR97 27-1041): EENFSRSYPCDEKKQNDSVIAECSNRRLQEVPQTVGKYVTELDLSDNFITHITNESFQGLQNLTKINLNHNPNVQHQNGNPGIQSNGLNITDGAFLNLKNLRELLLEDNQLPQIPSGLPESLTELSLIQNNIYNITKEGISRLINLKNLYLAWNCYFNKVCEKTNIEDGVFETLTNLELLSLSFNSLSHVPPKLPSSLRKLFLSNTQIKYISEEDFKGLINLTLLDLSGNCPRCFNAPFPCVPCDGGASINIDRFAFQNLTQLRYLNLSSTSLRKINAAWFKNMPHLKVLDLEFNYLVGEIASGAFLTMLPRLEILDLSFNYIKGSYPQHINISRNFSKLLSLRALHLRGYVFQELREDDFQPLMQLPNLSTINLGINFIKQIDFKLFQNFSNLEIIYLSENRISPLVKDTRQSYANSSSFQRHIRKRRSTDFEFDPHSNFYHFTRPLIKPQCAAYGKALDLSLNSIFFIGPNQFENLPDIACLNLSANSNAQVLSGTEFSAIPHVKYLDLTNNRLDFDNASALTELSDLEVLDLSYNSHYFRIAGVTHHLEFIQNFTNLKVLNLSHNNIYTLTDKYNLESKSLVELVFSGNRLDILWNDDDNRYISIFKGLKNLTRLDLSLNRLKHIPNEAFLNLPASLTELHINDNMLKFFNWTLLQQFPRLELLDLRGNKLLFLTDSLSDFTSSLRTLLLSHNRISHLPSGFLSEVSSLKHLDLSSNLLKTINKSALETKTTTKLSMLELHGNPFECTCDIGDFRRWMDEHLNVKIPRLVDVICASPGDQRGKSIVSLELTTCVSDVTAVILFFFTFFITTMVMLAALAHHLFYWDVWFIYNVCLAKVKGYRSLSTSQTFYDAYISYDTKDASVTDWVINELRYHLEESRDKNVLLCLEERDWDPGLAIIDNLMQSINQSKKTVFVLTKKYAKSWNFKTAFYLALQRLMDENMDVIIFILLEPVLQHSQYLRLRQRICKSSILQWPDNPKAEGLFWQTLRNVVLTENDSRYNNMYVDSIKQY
Method in brief: (§1)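 Agonists used: gardiquimod 7.5 μM (TLR7), R848 15.9 μM (TLR8), ODN2006 5 nM (TLR9), added after 30 min room-temperature compound pre-treatment (0.05 nM–50 μM) of receptor-overexpressing HEK-Blue cells. SEAP reporter (NF-κB/AP-1 driven) read after 22 h at 37 °C; inhibition scaled between agonist+DMSO and reference-inhibitor wells.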

[2] = molecular target: T2, human TLR7 (Homo sapiens, UniProt Q9NYK1); assay: TLR7 inhibition reporter assay (HEK-Blue cells, SEAP reporter, gardiquimod stimulation); details: HEK-Blue cells overexpressing human TLR7, SEAP reporter, gardiquimod 7.5 μM; read-out: TLR7 IC50
T2 construct: host or cells: HEK-Blue cells
T2 sequence (Q9NYK1 27-1049): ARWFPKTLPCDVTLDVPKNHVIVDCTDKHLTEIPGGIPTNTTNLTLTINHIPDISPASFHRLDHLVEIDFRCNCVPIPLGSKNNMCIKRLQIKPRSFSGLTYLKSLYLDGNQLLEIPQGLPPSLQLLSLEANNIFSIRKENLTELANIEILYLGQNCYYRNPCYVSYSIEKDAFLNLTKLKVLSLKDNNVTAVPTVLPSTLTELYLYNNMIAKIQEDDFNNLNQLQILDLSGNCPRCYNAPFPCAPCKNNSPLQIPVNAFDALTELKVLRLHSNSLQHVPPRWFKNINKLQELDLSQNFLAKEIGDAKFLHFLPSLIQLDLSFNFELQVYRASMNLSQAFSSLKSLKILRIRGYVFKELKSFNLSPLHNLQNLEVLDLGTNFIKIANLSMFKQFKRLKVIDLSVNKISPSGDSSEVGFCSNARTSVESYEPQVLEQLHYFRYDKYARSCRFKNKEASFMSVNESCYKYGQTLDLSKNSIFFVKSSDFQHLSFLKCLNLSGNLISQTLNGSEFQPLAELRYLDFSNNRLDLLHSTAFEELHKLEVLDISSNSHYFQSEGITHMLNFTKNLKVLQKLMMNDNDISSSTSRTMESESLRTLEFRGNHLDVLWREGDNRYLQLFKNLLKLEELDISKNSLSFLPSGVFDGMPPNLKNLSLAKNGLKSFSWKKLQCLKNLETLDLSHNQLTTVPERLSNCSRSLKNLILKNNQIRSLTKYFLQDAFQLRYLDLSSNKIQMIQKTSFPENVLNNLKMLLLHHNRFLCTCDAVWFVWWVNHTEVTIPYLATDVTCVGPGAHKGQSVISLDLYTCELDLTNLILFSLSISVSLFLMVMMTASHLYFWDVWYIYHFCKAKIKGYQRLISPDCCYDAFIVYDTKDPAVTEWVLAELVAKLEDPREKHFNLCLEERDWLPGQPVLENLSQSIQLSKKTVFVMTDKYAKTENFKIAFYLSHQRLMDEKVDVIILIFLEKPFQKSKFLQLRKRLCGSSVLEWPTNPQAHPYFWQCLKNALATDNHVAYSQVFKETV
Method in brief: as §1

[3] = molecular target: T3, human TLR9 (Homo sapiens, UniProt Q9NR96); assay: TLR9 inhibition reporter assay (HEK-Blue cells, SEAP reporter, ODN2006 stimulation); details: HEK-Blue cells overexpressing human TLR9, SEAP reporter, ODN2006 5 nM
T3 construct: host or cells: HEK-Blue cells
T3 sequence (Q9NR96 26-1032): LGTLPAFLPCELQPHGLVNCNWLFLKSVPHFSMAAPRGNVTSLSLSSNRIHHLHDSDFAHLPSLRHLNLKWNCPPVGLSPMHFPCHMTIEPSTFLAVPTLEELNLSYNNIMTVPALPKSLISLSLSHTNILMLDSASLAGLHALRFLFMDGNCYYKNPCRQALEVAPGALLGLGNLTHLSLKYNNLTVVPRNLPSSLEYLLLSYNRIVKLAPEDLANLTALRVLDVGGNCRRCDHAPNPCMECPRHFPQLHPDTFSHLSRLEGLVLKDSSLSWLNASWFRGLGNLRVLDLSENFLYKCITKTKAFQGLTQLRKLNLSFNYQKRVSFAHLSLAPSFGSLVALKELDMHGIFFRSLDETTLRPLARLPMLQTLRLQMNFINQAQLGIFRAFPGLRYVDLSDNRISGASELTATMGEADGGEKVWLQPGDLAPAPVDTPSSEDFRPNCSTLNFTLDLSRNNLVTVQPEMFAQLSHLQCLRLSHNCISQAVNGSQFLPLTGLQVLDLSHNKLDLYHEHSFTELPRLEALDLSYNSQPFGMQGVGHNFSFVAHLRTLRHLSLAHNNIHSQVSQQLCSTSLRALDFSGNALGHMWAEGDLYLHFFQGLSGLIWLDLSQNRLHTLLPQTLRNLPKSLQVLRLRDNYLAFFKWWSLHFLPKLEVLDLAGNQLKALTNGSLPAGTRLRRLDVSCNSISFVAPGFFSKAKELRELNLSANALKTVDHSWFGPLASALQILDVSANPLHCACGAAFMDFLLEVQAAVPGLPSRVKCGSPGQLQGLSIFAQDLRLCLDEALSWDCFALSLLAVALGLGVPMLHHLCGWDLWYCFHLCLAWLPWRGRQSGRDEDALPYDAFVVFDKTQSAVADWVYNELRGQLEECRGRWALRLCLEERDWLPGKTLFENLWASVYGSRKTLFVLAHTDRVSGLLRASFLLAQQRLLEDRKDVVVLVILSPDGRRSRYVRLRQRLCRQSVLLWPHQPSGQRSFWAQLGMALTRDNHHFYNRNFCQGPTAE
Method in brief: as §1

SMILES	IC50 [1] [nM]	IC50 [2] [nM]	IC50 [3] [nM]
Cc1c(-c2[nH]c3sc(N4CCC(NCC(C)(C)O)CC4)nc3c2C(C)C)cn2ncnc2c1C [Example 291, 1-((1-(5-(7,8-dimethyl-[1,2,4]triazolo[1,5-a]pyridin-6-yl)-6-isopropyl-4H-pyrrolo[3,2-d]thiazol-2-yl)piperidin-4-yl)amino)-2-methylpropan-2-ol]	0.39	7.65	16800
Cc1c(-c2[nH]c3sc(N4CCC(N(C)C(C)C)CC4)nc3c2C(C)C)cn2ncnc2c1C [Example 292, 1-(5-(7,8-dimethyl-[1,2,4]triazolo[1,5-a]pyridin-6-yl)-6-isopropyl-4H-pyrrolo[3,2-d]thiazol-2-yl)-N-isopropyl-N-methylpiperidin-4-amine]	0.46	3.18	7520
Cc1c(-c2[nH]c3sc(N4CCC(NC5CCC5)CC4)nc3c2C(C)C)cn2ncnc2c1C [Example 293, N-cyclobutyl-1-(5-(7,8-dimethyl-[1,2,4]triazolo[1,5-a]pyridin-6-yl)-6-isopropyl-4H-pyrrolo[3,2-d]thiazol-2-yl) piperidin-4-amine]	0.38	2.98	6650
COC(C)(C)CNC1CCN(c2nc3c(C(C)C)c(-c4cn5ncnc5c(C)c4C)[nH]c3s2)CC1 [Example 294, 1-(5-(7,8-dimethyl-[1,2,4]triazolo[1,5-a]pyridin-6-yl)-6-isopropyl-4H-pyrrolo[3,2-d]thiazol-2-yl)-N-(2-methoxy-2-methylpropyl)piperidin-4-amine]	0.42	7.97	8990
Cc1c(-c2[nH]c3sc(N4CCC(NCC5(C)COC5)CC4)nc3c2C(C)C)cn2ncnc2c1C [Example 295, 1-(5-(7,8-dimethyl-[1,2,4]triazolo[1,5-a]pyridin-6-yl)-6-isopropyl-4H-pyrrolo[3,2-d]thiazol-2-yl)-N-((3-methyloxetan-3-yl)methyl) piperidin-4-amine]	0.28	4.94	9710
Cc1c(-c2[nH]c3sc(N4CCC(NC5COC5)CC4)nc3c2C(C)C)cn2ncnc2c1C [Example 296, 1-(5-(7,8-dimethyl-[1,2,4]triazolo[1,5-a]pyridin-6-yl)-6-isopropyl-4H-pyrrolo[3,2-d]thiazol-2-yl)-N-(oxetan-3-yl)piperidin-4-amine]	0.73	3.45	33800
Cc1c(-c2[nH]c3sc(N4CCC(NC(C)C)CC4)nc3c2C(C)C)cn2ncnc2c1C [Example 297, 1-(5-(7,8-dimethyl-[1,2,4]triazolo[1,5-a]pyridin-6-yl)-6-isopropyl-4H-pyrrolo[3,2-d]thiazol-2-yl)-N-isopropylpiperidin-4-amine]	0.27	2.25	8910
CCN(C)C1CCN(c2nc3c(C(C)C)c(-c4cn5ncnc5c(C)c4C)[nH]c3s2)CC1 [Example 298, 1-(5-(7,8-dimethyl-[1,2,4]triazolo[1,5-a]pyridin-6-yl)-6-isopropyl-4H-pyrrolo[3,2-d]thiazol-2-yl)-N-ethyl-N-methylpiperidin-4-amine]	0.43	1.56	7410
Cc1c(-c2[nH]c3sc(N4CCC(N)CC4)nc3c2C(C)C)cn2ncnc2c1C [Example 299, 1-(5-(7,8-dimethyl-[1,2,4]triazolo[1,5-a]pyridin-6-yl)-6-isopropyl-4H-pyrrolo[3,2-d]thiazol-2-yl)piperidin-4-amine]	0.72	1.42	12700
Cc1c(-c2[nH]c3sc(N4CC5(CN(CC(C)C)C5)C4)nc3c2C(C)C)cn2ncnc2c1C [Example 300, 5-(7,8-dimethyl-[1,2,4]triazolo[1,5-a]pyridin-6-yl)-2-(6-isobutyl-2,6-diazaspiro[3.3]heptan-2-yl)-6-isopropyl-4H-pyrrolo[3,2-d]thiazole]	3.24	10.7	10100
Cc1c(-c2[nH]c3sc(N4CC5(CN(CC6CCOCC6)C5)C4)nc3c2C(C)C)cn2ncnc2c1C [Example 301, 5-(7,8-dimethyl-[1,2,4]triazolo[1,5-a]pyridin-6-yl)-6-isopropyl-2-(6-((tetrahydro-2H-pyran-4-yl)methyl)-2,6-diazaspiro[3.3]heptan-2-yl)-4H-pyrrolo[3,2-d]thiazole]	1.53	7.77	12300
Cc1c(-c2[nH]c3sc(N4CC5(CN(CC(C)(C)O)C5)C4)nc3c2C(C)C)cn2ncnc2c1C [Example 303, 1-(6-(5-(7,8-dimethyl-[1,2,4]triazolo[1,5-a]pyridin-6-yl)-6-isopropyl-4H-pyrrolo[3,2-d]thiazol-2-yl)-2,6-diazaspiro[3.3]heptan-2-yl)-2-methylpropan-2-ol]	0.93	7.99	26400
